This is an account of results in ChEMBL document CHEMBL5247623, “The SAR and action mechanisms of autophagy inhibitors that eliminate drug resistance” (Eur J Med Chem, 2022).

Assay [1] in a line: Inhibition of starvation induced autophagy in human MCF7 cells expressing eGFP-LC3. The assay is classed as functional, cell-based.
The nature of assay [2]: Inhibition of rapamycin induced autophagy in human MCF7 cells expressing eGFP-LC3. Type of assay: functional, cell-based.
For assay [3], the target named is Phosphatidylinositol 3-kinase catalytic subunit type 3 (Homo sapiens, UniProt Q8NEB9). Kind of assay: Inhibition of VPS34 (unknown origin).
Sequence of Phosphatidylinositol 3-kinase catalytic subunit type 3 (Q8NEB9 whole entry): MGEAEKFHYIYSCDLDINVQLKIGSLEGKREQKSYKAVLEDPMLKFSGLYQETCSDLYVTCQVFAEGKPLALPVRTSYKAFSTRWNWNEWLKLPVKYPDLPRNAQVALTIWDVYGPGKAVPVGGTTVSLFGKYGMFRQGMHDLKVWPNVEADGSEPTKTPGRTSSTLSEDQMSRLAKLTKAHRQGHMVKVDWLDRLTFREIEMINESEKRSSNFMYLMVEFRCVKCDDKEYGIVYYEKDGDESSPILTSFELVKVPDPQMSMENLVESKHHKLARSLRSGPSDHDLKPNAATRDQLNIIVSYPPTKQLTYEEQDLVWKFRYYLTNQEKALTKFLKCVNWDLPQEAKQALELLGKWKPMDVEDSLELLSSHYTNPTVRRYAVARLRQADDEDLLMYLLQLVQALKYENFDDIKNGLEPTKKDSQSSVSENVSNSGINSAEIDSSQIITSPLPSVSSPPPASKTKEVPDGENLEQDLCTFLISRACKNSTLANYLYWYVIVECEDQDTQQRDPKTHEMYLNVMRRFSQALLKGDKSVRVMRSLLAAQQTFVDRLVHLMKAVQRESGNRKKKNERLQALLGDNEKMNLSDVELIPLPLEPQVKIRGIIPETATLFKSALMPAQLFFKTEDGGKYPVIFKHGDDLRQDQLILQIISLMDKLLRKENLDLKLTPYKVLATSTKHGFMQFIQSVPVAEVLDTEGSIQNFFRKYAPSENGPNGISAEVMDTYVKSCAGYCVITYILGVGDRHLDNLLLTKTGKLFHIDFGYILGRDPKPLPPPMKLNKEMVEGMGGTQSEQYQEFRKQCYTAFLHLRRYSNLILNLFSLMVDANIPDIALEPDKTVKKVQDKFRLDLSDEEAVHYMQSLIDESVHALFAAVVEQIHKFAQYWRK

Bounds are passed on as bounds.

By IC50 is commonly meant the concentration that inhibits the measured activity by half. A low value points to greater potency in that assay. For `Cc1cc(Nc2cc(Cl)nc(Oc3ccc([N+](=O)[O-])cc3)n2)no1`, the IC50 in assay [1] amounted to 170 nM; in assay [2], 120 nM; in assay [3], 20 nM.
`O=[N+]([O-])c1ccc(Oc2nc(Cl)cc(Nc3ccccc3)n2)cc1` yielded an IC50 in assay [1] of 2130 nM.
Consider `NS(=O)(=O)c1ccc(Oc2nc(Cl)cc(Nc3cc[nH]n3)n2)cc1`, for which the IC50 in assay [1] was determined as 450 nM; in assay [2] it was 420 nM; in assay [3], 61 nM.
In assay [3], `COC[C@H]1OC(=O)c2coc3c2[C@@]1(C)C1=C(C3=O)[C@@H]2C[C@@H](Br)C(OC(C)=O)[C@@]2(C)C[C@H]1OC(C)=O` (some centres undefined) came in with a half-maximal inhibitory concentration (IC50) of 77 nM. That is a double-digit nanomolar value.
`COC[C@H]1OC(=O)c2coc3c2[C@@]1(C)C1=CC[C@]2(C)C(=O)CC[C@H]2C1C3=O` (some centres undefined) returned an IC50 in assay [3] of 54 nM.
Regarding `Cc1cc(Nc2cc(N3CCN(C)CC3)nc(Oc3ccc([N+](=O)[O-])cc3)n2)n[nH]1`, the figures for the IC50 in assay [1] and in assay [3] were 390 nM and 146 nM, respectively.
As for `CCCCN/C=C1\C(=O)O[C@H](COC)[C@@]2(C)C1=C(O)C(=O)C1=C2[C@H](OC(C)=O)C[C@]2(C)C(=O)CC[C@@H]12`, inhibition in assay [3] was half-maximal at 52 nM (IC50).
Compound `O=C(CC1CC1)N1CCc2ccc(S(=O)(=O)Nc3ccc(Cl)c(C(F)(F)F)c3)cc21` showed an IC50 in assay [1] of 6600 nM.
Still for that read-out and setting: next, `O=C(C1CC1)N1CCc2cc(Br)c(S(=O)(=O)Nc3ccc(Cl)c(C(F)(F)F)c3)cc21`: 140 nM.
Turning to `Cc1cc(Nc2cc(C)[nH]n2)nc(Oc2ccc([N+](=O)[O-])cc2)n1`, the IC50 in assay [1] was 70 nM; in assay [2], 40 nM; in assay [3], 23 nM.
The matching figures for `N#Cc1ccc(Oc2nc(Cl)cc(Nc3cc[nH]n3)n2)cc1`: 130 nM, 90 nM and 49 nM.
Consider `Cc1cc(Nc2cc(Cl)nc(Oc3ccc([N+](=O)[O-])cc3)n2)n[nH]1`, for which the figures for the IC50 in assay [1] and in assay [2] were 90 nM and 40 nM, respectively.
In assay [3], `COC[C@H]1OC(=O)c2coc3c2[C@@]1(C)C1=C(C3=O)[C@@H]2C[C@@H](O)C(OC(C)=O)[C@@]2(C)C[C@H]1OC(C)=O` (some centres undefined) returned an IC50 of 153 nM.
Still for that read-out and setting: next, `CN/C=C1\C(=O)O[C@H](COC)[C@@]2(C)C1=C(O)C(=O)C1=C2[C@H](OC(C)=O)C[C@]2(C)C(=O)CC[C@@H]12`: not below 500 nM.
Compound `O=C(C1CC1)N1CCc2cc(Br)c(S(=O)(=O)Nc3cc(C(F)(F)F)ccc3Cl)cc21` came in with an IC50 in assay [1] of 1100 nM.
Still for that read-out and setting: to `O=C(CC1CC1)N1CCc2cc(Br)c(S(=O)(=O)Nc3ccc(Cl)c(C(F)(F)F)c3)cc21` belongs 4500 nM; to `O=C(C1CCC1)N1CCc2cc(Br)c(S(=O)(=O)Nc3ccc(Cl)c(C(F)(F)F)c3)cc21`, 3300 nM; to `O=C(C1CC1)N1CCc2cc(Br)c(S(=O)(=O)Nc3cccc(C(F)(F)F)c3)cc21`, 560 nM.
In assay [3], `COC[C@H]1OC(=O)c2coc3c2[C@@]1(C)C1=C(C3=O)[C@@H]2CCC(=O)[C@@]2(C)C[C@H]1OC(C)=O` [WORTMANNIN] yielded an IC50 of 4.2 nM.
On the same count and under the same terms, to `COC[C@H]1OC(=O)/C(=C\N)C2=C(O)C(=O)C3=C([C@H](OC(C)=O)C[C@]4(C)C(=O)CC[C@@H]34)[C@]21C` belongs not below 500 nM; to `CCCN/C=C1\C(=O)O[C@H](COC)[C@@]2(C)C1=C(O)C(=O)C1=C2[C@H](OC(C)=O)C[C@]2(C)C(=O)CC[C@@H]12`, not below 500 nM.
Consider `Cc1cc(Nc2cc(C(F)(F)F)nc(Oc3ccc([N+](=O)[O-])cc3)n2)n[nH]1`, for which the results for the IC50 in assay [1], in assay [2] and in assay [3] were 190 nM, 70 nM and 78 nM, respectively.
Take `COC[C@H]1OC(=O)C23CC2COC2=C3[C@@]1(C)C1=C(C2=O)[C@@H]2CCC(=O)[C@@]2(C)C[C@H]1OC(C)=O` (some centres undefined): the 50% inhibitory concentration (IC50) in assay [3] is not below 500 nM.
For `Cc1cc(Nc2cc(Cl)nc(OCc3ccc([N+](=O)[O-])cc3)n2)n[nH]1`, the concentration for half-maximal inhibition (IC50) came to 200 nM in assay [1], 470 nM in assay [2] and 214 nM in assay [3].
In assay [1], `O=C(C1CC1)N1CCc2cc(Br)c(S(=O)(=O)Nc3cc(Cl)ccc3C(F)(F)F)cc21` came in with an IC50 of 2400 nM.
Regarding `Cc1ccc(NS(=O)(=O)c2cc3c(cc2Br)CCN3C(=O)C2CC2)cc1C(F)(F)F`, inhibition in assay [1] was half-maximal at 810 nM (IC50).
As for `COC[C@H]1OC(=O)c2coc3c2[C@@]1(C)C1=C(C3=O)[C@@H]2C[C@@H](OC(C)=O)C(OC(C)=O)[C@@]2(C)C[C@H]1OC(C)=O` (some centres undefined), in assay [3], half-maximal inhibition (IC50) was put at 309 nM.
For `CC(C)(C)c1cc(Nc2cc(Cl)nc(Oc3ccc([N+](=O)[O-])cc3)n2)n[nH]1`, the IC50 in assay [1] stood at 1400 nM; in assay [2] it was 2000 nM; in assay [3] it was 627 nM.
For the compound `COC[C@H]1OC(=O)c2c(C)oc3c2[C@@]1(C)C1=C(C3=O)[C@@H]2CCC(=O)[C@@]2(C)C[C@H]1OC(C)=O`, the IC50 in assay [3] is not below 500 nM.
With `CC(C)C(=O)N1CCc2cc(Br)c(S(=O)(=O)Nc3ccc(Cl)c(C(F)(F)F)c3)cc21`, the IC50 in assay [1] worked out at 3000 nM.
As to `Cc1cc(Nc2cc(N(C)C)nc(Oc3ccc([N+](=O)[O-])cc3)n2)n[nH]1`, the IC50 in assay [1] was 450 nM; in assay [2], 280 nM; in assay [3], 285 nM.
As for `CCN/C=C1\C(=O)O[C@H](COC)[C@@]2(C)C1=C(O)C(=O)C1=C2[C@H](OC(C)=O)C[C@]2(C)C(=O)CC[C@@H]12`, the IC50 in assay [3] is not below 500 nM.
Take `COC[C@H]1OC(=O)C2=CCOC3=C2[C@@]1(C)C1=C(C3=O)[C@@H]2CCC(=O)[C@@]2(C)C[C@H]1OC(C)=O`: in assay [3], 271 nM corresponded to half-maximal inhibition (IC50).
As to `Cc1cc(Nc2cc(C(F)(F)F)nc(Nc3ccc([N+](=O)[O-])cc3)n2)n[nH]1`, the IC50 in assay [1] worked out at 340 nM; in assay [2], 440 nM; in assay [3], 310 nM.
For `Cc1cc(Nc2cc(N3CCOCC3)nc(Oc3ccc([N+](=O)[O-])cc3)n2)n[nH]1`, in that order: 230 nM, 160 nM and 121 nM.
In assay [3], `COC[C@H]1OC(=O)c2coc3c2[C@@]1(C)C1=C(C3=O)[C@@H]2CC[C@H](O)[C@@]2(C)C[C@H]1OC(C)=O` had an IC50 of 0.5 nM. That is a sub-nanomolar value.
The same measure, in the same setting: to `CCN(/C=C1\C(=O)O[C@H](COC)[C@@]2(C)C1=C(O)C(=O)C1=C2[C@H](OC(C)=O)C[C@]2(C)C(=O)CC[C@@H]12)CC` belongs 80 nM.
Take `O=C(C1CC1)N1CCc2cc(Br)c(S(=O)(=O)Nc3cc(C(F)(F)F)ccc3F)cc21`: 1400 nM corresponded to half-maximal inhibition in assay [1] (IC50).
In assay [3], `COC[C@H]1OC(=O)c2coc3c2[C@@]1(C)C1=C(C3=O)[C@@H]2CCC(OC(C)=O)[C@@]2(C)C[C@H]1OC(C)=O` (some centres undefined) gave an IC50 of 59 nM.
Still for that read-out and setting: next, `COC[C@H]1OC(=O)c2coc3c2[C@@]1(C)C1=C(C3=O)[C@@H]2CCC(=O)[C@@]2(C)CC1`: 17 nM.
The same measure, in the same setting: to `COC(=O)c1coc2c(O)c3c(c(C)c12)C=C[C@]1(C)C(=O)CC[C@@H]31` belongs 4600 nM.
As to `O=[N+]([O-])c1ccc(Oc2nc(Cl)cc(Nc3cc(C4CC4)[nH]n3)n2)cc1`, the IC50 in assay [1] stood at 130 nM; in assay [2], 100 nM; in assay [3], 36 nM.
Consider `Clc1cc(Nc2cc[nH]n2)nc(OCc2ccncc2)n1`, for which the IC50 amounted to 380 nM in assay [1], 280 nM in assay [2] and 110 nM in assay [3].
